Like-named read-outs stand apart in the source and are kept apart here.

Experiment [1] concerns Primary human T-cells. As to the kind of experiment: Primary Human T-Cell Proliferation Assay Stimulated with IL-2 (CellTiter-Glo). To be noted: primary human T-cell proliferation stimulated with IL-2, read-out: IC50, Example 42. The class given is cell-based. From the text:
The activity of the active compounds of the invention may further be characterized by assaying the effect of the 2,4-substituted pyrimidinediamine compounds described herein on the proliferative response of primary human T-cells. In this assay, primary human T-cells derived from peripheral blood and pre-activated through stimulation of the T-cell receptor and CD28, proliferate in culture in response to the cytokine Interleukin-2 (IL-2). This proliferative response is dependent on the activation of JAK1 and JAK3 tyrosine kinases, which phosphorylate and activate the transcription factor Stat-5. The primary human T-cells are incubated with the 2,4-substituted pyrimidinediamine compounds in the presence of IL-2 for 72 hours and at the assay endpoint intracellular ATP concentrations are measured to assess cell viability. A reduction in cell proliferation compared to control conditions is indicative of inhibition of the JAK kinase pathway. An exemplary assay of this type is described in greater detail in Example 42
Primary human T-cells derived from peripheral blood and pre-activated through stimulation of the T-cell receptor and CD28, proliferate in vitro in response to the cytokine Interleukin-2 (IL-2). This proliferative response is dependent on the activation of JAK-1 and JAK-3 tyrosine kinases, which phosphorylate and activate the transcription factor Stat-5.
Human primary T cells were prepared as follows. Whole blood was obtained from a healthy volunteer, mixed 1:1 with PBS, layered on to Ficoll Hypaque (Amersham Pharmacia Biotech, Piscataway, NJ, Catalog #17-1440-03) in 2:1 blood/PBS:ficoll ratio and centrifuged for 30 min at 4° C. at 1750 rpm. The lymphocytes at the serum: ficoll interface were recovered and washed twice with 5 volumes of PBS. The cells were resuspended in Yssel's medium (Gemini Bio-products, Woodland, CA, Catalog #400-103) containing 40 U/mL recombinant IL2 (R and D Systems, Minneapolis, MN, Catalog #202-IL (20 rig)) and seeded into a flask pre-coated with 1 μg/mL anti-CD3 (BD Pharmingen, San Diego, CA, Catalog #555336) and 5 μg/mL anti-CD28 (Immunotech, Beckman Coulter of Brea CA, Catalog #IM1376). The primary T-cells were stimulated for 3-4 days, then transferred to a fresh flask and maintained in RPMI with 10% FBS and 40 U/mL IL-2.
Primary T-cells were washed twice with PBS to remove the IL-2 and resuspended in Yssel's medium at 2×10^6 cells/mL. 50 μL of cell suspension containing 80 U/mL IL-2 was added to each well of a flat bottom 96 well black plate. For the unstimulated control, IL-2 was omitted from the last column on the plate. Compounds were serially diluted in dimethyl sulfoxide (DMSO, 99.7% pure, cell culture tested, Sigma-Aldrich, St. Louis, MO, Catalog No. D2650) from 5 mM in 3-fold dilutions, and then diluted 1:250 in Yssel's medium. 50 μL of 2× compound was added per well in duplicate and the cells were allowed to proliferate for 72 hours at 37° C.
Proliferation was measured using CellTiter-Glo® Luminescent Cell Viability Assay (Promega), which determines the number of viable cells in culture based on quantitation of the ATP present, as an indicator of metabolically active cells. The substrate was thawed and allowed to come to room temperature. After mixing the Cell Titer-Glo reagent and diluent together, 100 μL was added to each well. The plates were mixed on an orbital shaker for two minutes to induce lysis and incubated at room temperature for an additional ten minutes to allow the signal to equilibrate. Detection was performed using a Wallac Victor2 1420 multilabel counter purchased from Perkin Elmer, Shelton, CT The IC50 calculated based on the results of this assay are provided in TABLE XII.

For experiment [2], the system named is IL-4 stimulated expression of CD23 in human Ramos B cells (JAK-1 and JAK-3). As to the kind of experiment: Assay for Ramos B-Cell Line Stimulated with IL-4 (CD23 upregulation, FACS). In kind it is cell-based. To be noted: Ramos B-cell line stimulated with IL-4, CD23 expression by FACS, read-out: IC50, Example 41. Put shortly: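 Read-out is surface CD23 by FACS after anti-CD23-PE staining, giving IC50. Before this, cells were stimulated 20-24 h with 50 units/mL (final) human IL-4, following 1 h compound or vehicle pre-treatment at 37 °C; log-phase Ramos B cells, 5×10^4 per well in 5% serum RPMI.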
(In flow cytometry, cells or beads pass a laser one at a time.)

What is called IC50 is the point on the concentration scale where inhibition reaches its midpoint. For the compound `Cc1cnc(Nc2ccc(Cl)c(S(N)(=O)=O)c2)nc1Nc1ccc(OCC(=O)N(C)C)c(F)c1` [Compound I-142, N2-(3-Aminosulfonyl-4-chlorophenyl)-N4-(4-dimethylaminocarbonylmethoxy-3-fluorophenyl)-5-methyl-2,4-pyrimidinediamine], the IC50 in experiment [1] (Homo sapiens, T-cell) was found to be 854 nM; in experiment [2] (Homo sapiens, Ramos), 155 nM.

On to `CNC(=O)COc1ccc(Nc2nc(Nc3ccc(C)c(S(N)(=O)=O)c3)ncc2F)cc1` [Compound I-145, N2-(3-Aminosulfonyl-4-methylphenyl)-5-fluoro-N4-(4-methylaminocarbonylmethoxyphenyl)-2,4-pyrimidinediamine], for which the IC50 amounted to 349 nM in experiment [1] (Homo sapiens, T-cell) and 542 nM in experiment [2] (Homo sapiens, Ramos).

Take `CNC(=O)COc1ccc(Nc2nc(Nc3cccc(S(N)(=O)=O)c3)ncc2F)cc1Cl` [Compound I-147, N2-(3-Aminosulfonylphenyl)-N4-(3-chloro-4-methylaminocarbonylmethoxyphenyl)-5-fluoro-2,4-pyrimidinediamine]: the IC50 in experiment [1] (Homo sapiens, T-cell) turned out to be 174 nM; in experiment [2] (Homo sapiens, Ramos) it was 79.9 nM.

As to `CNC(=O)COc1ccc(Nc2nc(Nc3ccc(C)c(S(N)(=O)=O)c3)ncc2F)cc1Cl` [Compound I-148, N2-(3-Aminosulfonyl-4-methylphenyl)-N4-(3-chloro-4-methylaminocarbonylmethoxyphenyl)-5-fluoro-2,4-pyrimidinediamine], the IC50 in experiment [1] (Homo sapiens, T-cell) amounted to 240 nM; in experiment [2] (Homo sapiens, Ramos) it was 61.2 nM.

For `CNC(=O)COc1ccc(Nc2nc(Nc3ccc(C)c(S(N)(=O)=O)c3)ncc2C)cc1Cl` [Compound I-151, N2-(3-Aminosulfonyl-4-methylphenyl)-N4-(3-chloro-4-methylaminocarbonylmethoxyphenyl)-5-methyl-2,4-pyrimidinediamine], the IC50 came to 78.3 nM in experiment [1] (Homo sapiens, T-cell) and 61.9 nM in experiment [2] (Homo sapiens, Ramos).

As for `CNC(=O)COc1ccc(Nc2nc(Nc3ccc(Cl)c(S(N)(=O)=O)c3)ncc2F)cc1Cl` [Compound I-152, N2-(3-Aminosulfonyl-4-chlorophenyl)-N4-(3-chloro-4-methylaminocarbonylmethoxyphenyl)-5-fluoro-2,4-pyrimidinediamine], the IC50 in experiment [1] (Homo sapiens, T-cell) amounted to 1540 nM; in experiment [2] (Homo sapiens, Ramos) it was 302 nM.

As to `CNC(=O)COc1ccc(Nc2nc(Nc3ccc(Cl)c(S(N)(=O)=O)c3)ncc2C)cc1Cl` [Compound I-153, N2-(3-Aminosulfonyl-4-chlorophenyl)-N4-(3-chloro-4-methylaminocarbonylmethoxyphenyl)-5-methyl-2,4-pyrimidinediamine], the IC50 in experiment [1] (Homo sapiens, T-cell) came to 334 nM; in experiment [2] (Homo sapiens, Ramos), 114 nM.

Regarding `CNC(=O)COc1ccc(Nc2nc(Nc3ccc(S(N)(=O)=O)cc3)ncc2C)cc1F` [Compound I-154, N2-(4-Aminosulfonylphenyl)-N4-(3-fluoro-4-methylaminocarbonylmethoxyphenyl)-5-methyl-2,4-pyrimidinediamine], the IC50 turned out to be 992 nM in experiment [1] (Homo sapiens, T-cell) and 276 nM in experiment [2] (Homo sapiens, Ramos).

For the compound `C=CCNC(=O)COc1ccc(Nc2nc(Nc3ccc(S(N)(=O)=O)cc3)ncc2F)cc1` [Compound I-157, N4-(4-Allylaminocarbonylmethoxyphenyl)-N2-(4-aminosulfonylphenyl)-5-fluoro-2,4-pyrimidinediamine], the IC50 in experiment [1] (Homo sapiens, T-cell) stood at 1890 nM; in experiment [2] (Homo sapiens, Ramos), 246 nM.

Turning to `NS(=O)(=O)c1cccc(Nc2ncc(F)c(Nc3ccc(OCc4ccccn4)cc3)n2)c1` [Compound I-162, N2-(3-Aminosulfonylphenyl)-5-fluoro-N4-[4-(2-pyridinyl)methyleneoxyphenyl]-2,4-pyrimidinediamine], the figures for the concentration for half-maximal inhibition (IC50) in experiment [1] and in experiment [2] were 136 nM and 51 nM, respectively.

In the case of `Cc1cc(Nc2nc(Nc3ccc(S(C)(=O)=O)c(N)c3)ncc2F)ccc1OCc1ccccn1` [Compound I-168, N2-(3-Amino-4-methylsulfonylphenyl)-5-fluoro-N4-[(4-((pyridin-2-yl)methoxy)-3-methylphenyl)]-2,4-pyrimidinediamine], the IC50 in experiment [1] (Homo sapiens, T-cell) came out at 1180 nM; in experiment [2] (Homo sapiens, Ramos), 154 nM.

With `NS(=O)(=O)c1cccc(Nc2ncc(F)c(Nc3ccc(-c4ccccn4)c(OCF)c3)n2)c1` [Compound I-169, N2-(3-Aminosulfonylphenyl)-5-fluoro-N4-[4-(2-pyridinyl)-3-fluoromethyleneoxyphenyl]-2,4-pyrimidinediamine], the values for the IC50 in experiment [1] and in experiment [2] were 137 nM and 54.6 nM, respectively.

As for `NS(=O)(=O)c1cccc(Nc2ncc(F)c(Nc3ccc(OCc4ccccn4)c(Cl)c3)n2)c1` [Compound I-171, N2-(3-Aminosulfonylphenyl)-5-fluoro-N4-[4-(2-pyridinyl)-3-chloromethyleneoxyphenyl]-2,4-pyrimidinediamine], the figures for the IC50 in experiment [1] and in experiment [2] were 415 nM and 117 nM, respectively.

Turning to `Cc1ccc(Nc2ncc(F)c(Nc3ccc(-c4ccccn4)c(OCCl)c3)n2)cc1S(N)(=O)=O` [Compound I-174, N2-(3-Aminosulfonyl-4-methylphenyl)-5-fluoro-N4-[4-(2-pyridinyl)-3-chloromethyleneoxyphenyl]-2,4-pyrimidinediamine], the IC50 in experiment [1] is 1230 nM; in experiment [2], 117 nM.

On to `NS(=O)(=O)c1ccc(Nc2ncc(F)c(Nc3ccc(OCc4ccccn4)c(Cl)c3)n2)cc1` [Compound I-175, N2-(4-Aminosulfonylphenyl)-5-fluoro-N4-[4-(2-pyridinyl)-3-chloromethyleneoxyphenyl]-2,4-pyrimidinediamine], for which the IC50 came out at 3080 nM in experiment [1] and 147 nM in experiment [2].

For `Cc1cc(Nc2nc(Nc3ccc(S(N)(=O)=O)cc3)ncc2F)ccc1OCc1ccccn1` [Compound I-176, N2-(4-Aminosulfonylphenyl)-5-fluoro-N4-[4-(2-pyridinyl)-3-methylmethyleneoxyphenyl]-2,4-pyrimidinediamine], the IC50 in experiment [1] turned out to be 1690 nM; in experiment [2], 259 nM.

Turning to `NS(=O)(=O)c1cccc(Nc2ncc(F)c(Nc3cccc(OCc4cccnc4)c3)n2)c1` [Compound I-182, N2-(3-Aminosulfonylphenyl)-5-fluoro-N4-[3-(3-pyridinyl)methyleneoxyphenyl]-2,4-pyrimidinediamine], the IC50 in experiment [1] was 1130 nM; in experiment [2], 190 nM.

Consider `NS(=O)(=O)c1cccc(Nc2ncc(F)c(Nc3ccc(OCc4ccncc4)cc3)n2)c1` [Compound I-193, N2-(3-Aminosulfonylphenyl)-5-fluoro-N4-[4-(4-pyridinyl)methyleneoxyphenyl]-2,4-pyrimidinediamine], for which the IC50 in experiment [1] is 55.6 nM; in experiment [2], 38.2 nM.

Regarding `CNS(=O)(=O)c1cc(Nc2ncc(F)c(Nc3ccc(OCc4ccncc4)cc3)n2)ccc1C` [Compound I-195, 5-Fluoro-N2-[3-(N-methylaminosulfony)-4-methylphenyl]-5-fluoro-N4-[4-(4-pyridinyl)methyleneoxyphenyl]-2,4-pyrimidinediamine], the IC50 amounted to 127 nM in experiment [1] and 82.6 nM in experiment [2].

`Cc1cc(COc2ccc(Nc3nc(Nc4ccc(Cl)c(S(N)(=O)=O)c4)ncc3F)cc2)no1` [Compound I-220, N2-(3-Aminosulfonyl-4-chlorophenyl)-5-fluoro-N4-[4-(5-methylisoxazol-3-yl)methyleneoxyphenyl]-2,4-pyrimidinediamine]: the IC50 in experiment [1] amounted to 1070 nM; in experiment [2], 121 nM.

These data come from patent publication US11827628B2, “Compositions and methods for inhibition of the JAK pathway” (Rigel Pharmaceuticals, Inc., priority 2005, dated 2023).
